Counter-ions that a name gives are not always drawn. Like-named read-outs stand apart in the source and are kept apart here.
Test system: sensitivity to distension of th colonic wall
Experiment: Glass bead expulsion test (time between rectal insertion and expulsion of bead)
Type: in vivo, male albino mice
Conditions: Mus musculus, 1 h, drug given one hour prior to glass bead insertion, ED50 = dose causing an activity index of 2
Text: The disorder is characterized by abdominal pain, diarrhea, constipation and like symptoms caused by excessive sensitivity to distension of the bowel by the presence of intestinal gas and/or fecal material. The extent to which a compound is effective in providing relief may be determined by a test in which a glass bead is inserted into the rectum and the lapse of time between insertion and expulsion of the bead determined. Compounds which are effective in decreasing the sensitivity to distension of th colonic wall delays the expulsion of the bead. The test is carried out with male albino mice of 18-25 grams body weight using groups of five mice for each compound dose tested. The initial screen dose selected for all compounds is 50 milligrams per kilogram of body weight (mg/kg) administered orally in a volume of 0.1 milliliter per 10 grams of body weight. The control groups receive the vehicle, 0.5 percent methocel, used for both oral and intraperitoneal administration. The mice are fasted one hour before testing and the test drugs are given one hour prior to glass bead insertion. At the end of the pretreatment time, the mouse is picked up and held firmly in one hand with his abdomen facing the technician. The glass bead of 3 millimeters in diameter is positioned at the rectum and using a pinching action with a thumb and forefinger, the bead is pushed into the rectum. Then using a glass rod of 3 millimeters in diameter which has been lubricated with 0.5 percent methocel to facilitate insertion, the glass bead is pushed up into the rectum a distance of 2 centimeters using a slow gentle turning motion. The mice are timed as a group using the last mouse inserted as zero time and the number of beads expelled in a group at different timed intervals are recorded. The groups are based on timed intervals of 0 to 5 minutes, 5 to 10 minutes, 10 to 20 minutes, 20 to 40 minutes and greater than 40 minutes. They are given the activity index values of 0, 1, 2, 3 and 4, respectively. Mice who have not expelled their beads by the 40-minute cutoff time are examined for perforations. Those mice whose colons are perforated are eliminated from the group. The sum of the values divided by the number of mice or beads is termed the activity index for the drug tested. The ED50 is determined by regression lines using the method of least squares. The ED50 is arbitrarily assigned as that dose causing an activity index of 2. The results of this test employing intraperitoneal and oral administration of N-aryl-N'-(2-imidazolidinylidene)urea compounds are shown in Table I.

[1] = ip, intraperitoneal, read-out: ED50 Intraperitoneal

| SMILES | ED50 (oral, read-out: ED50 Per Os) [mg/kg] | ED50 [1] [mg/kg] |
| --- | --- | --- |
| Cc1cccc(C)c1NC(=O)N=C1NCCN1 [2,6-di(CH3)-.phi., N-(2,6-dimethylphenyl)-N'-(2-imidazolidinylidene)urea] | 16 | 12 |
| Cl.O=C(N=C1NCCN1)Nc1c(Br)cccc1Br [2,6-diBr-.phi., N-(2,6-dibromophenyl)-N'-(2-imidazolidinylidene)urea hydrochloride] | 38 | 9 |
| Cl.O=C(N=C1NCCN1)Nc1c(Cl)cccc1Cl [2,6-diCl-.phi., N-(2,6-Dichlorophenyl)-N'-(2-imidazolidinylidene)urea Hydrochloride] | 13.7 | 7 |
| CCc1cccc(C)c1NC(=O)N=C1NCCN1 [2-C2 H5,6-CH3 -.phi., N-(2-Ethyl-6-methylphenyl)-N'-(2-imidazolidinylidene)urea. Fumarate (3:2)] | 121 | 43 |
| Cc1cccc(Cl)c1NC(=O)N=C1NCCN1.Cl [2-Cl,6-CH3 -.phi., N-(2-chloro-6-methylphenyl)-N'-(2-imidazolidinylidene)urea hydrochloride] | 35 | 8 |
